Test results as given in patent US11318139B2, “Methods for treating brain metastases using combinations of anti-P13K and anti-mTOR agents” (Dana-Farber Cancer Institute, Inc., priority 2016, dated 2022).

How the values were obtained:
DF-BM354 = test: In vivo treatment of orthotopic HER2-positive BCBM patient-derived xenograft DF-BM354 (bioluminescence imaging, survival); design: species or system mice; settings: BKM120 PO 30 mg/kg QD; RAD001 PO 7.5 mg/kg QD; MEK162 PO 15 mg/kg; GNE-317 PO 40 mg/kg QD
Method: Luciferase-expressing tumors were then propagated in mice.
The signals were analyzed with CareStream MI Software.
All compounds were purchased from Haoyuan ChemExpress Co.
GNE-317 obtained from Genetcch was dissolved in 0.5% methylcellulose/0.2% Tween 80 and given oral once/day at 40 mg/kg.

[1] = system: PI3K pathway signaling (pAKT, pS6RP, p4EBP1), Ki67 and cleaved caspase-3 in DF-BM355 tumors; test: Pharmacodynamic IHC / Western blot analysis of treated DF-BM355 tumors; settings: IHC after 4 days of treatment
Method: Diaminobenzidine (DAB), brightfield staining was performed according to standard protocols using DAB EnVision+™ System (Dako) on paraffin sections. Briefly five micron thick sections were deparaffinized with xylene, followed by gradation washes in 100%, 95%, 80% ethyl alcohol before performing heat antigen retrieval in 10 mM sodium citrate buffer (pH 6.0) for 20 minutes. Subsequently, sections were treated with peroxidase block (Dako) for ten minutes followed by overnight incubation at 4° C. with the following primary antibodies: polyclonal PTEN (Cell Signaling #9559), pS6RP-Ser235/236 (Cell Signaling #2211), p4EBP1-Thr37/46 (Cell Signaling #2855), or cleaved caspase-3 (Cell Signaling #9664) from Cell Signaling; estrogen receptor (ER) (ThermoScientific SP1) or HER2 (ThermoScientific SP3) from ThermoScientific; or progesterone receptor (PR) (Dako PgR 636), CK7 (Dako), GFAP (Dako #z0334), OLIG2 (Dako), or monoclonal mouse anti-Ki67 (Dako MIB-1 or Vector lab #VP K-451) from Dako or Vector lab. […]
Ki67 and cleaved caspase-3 indexes were calculated as a percentage of positive cells in 4-5 random areas of each sample. Images were captured at 40× or 60× magnification and quantifications of Ki67 and cleaved caspase-3 immunoreactivity were performed using the ImmunoRatio plugin provided in the Image J software. […]

[2] = statement with literature citation; cited from earlier work

SMILES	therapeutic response / tumor growth of DF-BM354 (bioluminescence imaging, survival) (DF-BM354)	number of Ki67-positive cells (cell proliferation) in DF-BM355 tumors [1]	blood-brain barrier penetration [2]
Nc1cc(C(F)(F)F)c(-c2cc(N3CCOCC3)nc(N3CCOCC3)n2)cn1 [BKM120, 5-(2,6-dimorpholin-4-ylpyrimidin-4-yl)-4-(trifluoromethyl)pyridin-2-amine]	neither BKM120 nor RAD001 monotherapy had meaningful effects	did not decrease	permeates the blood-brain barrier
COC1(c2sc3c(N4CCOCC4)nc(-c4cnc(N)nc4)nc3c2C)COC1 [GNE-317, 5-(6-(3-methoxyoxetan-3-yl)-7-methyl-4-morpholinothieno[3,2-d]pyrimidin-2-yl)pyrimidin-2-amine]	marked regression		effectively crossing the blood brain barrier
CO[C@H]1C[C@@H]2CC[C@@H](C)[C@@](O)(O2)C(=O)C(=O)N2CCCC[C@H]2C(=O)O[C@H]([C@H](C)C[C@@H]2CC[C@@H](OCCO)[C@H](OC)C2)CC(=O)[C@H](C)/C=C(\C)[C@@H](O)[C@@H](OC)C(=O)[C@H](C)C[C@H](C)/C=C/C=C/C=C/1C [RAD001]	neither BKM120 nor RAD001 monotherapy had meaningful effects		demonstrated blood-brain barrier (BBB) penetrance
